According to patent publication US12390469B2, “SHP2 inhibitor monotherapy and uses thereof” (HUYABIO International, LLC, priority 2021, dated 2025):
“Also recorded” adds a separate entry of the source.

Columns and labels:
[1] = tested on: NCI-H358; assay: Cell viability assay (CellTiter-Glo), NCI-H358; type: cell-based, human; conditions: Day 5, CellTiter-Glo
Description: (§1) Cell lines and maintenance: All cell lines used for in vitro and in vivo studies were supplied as part of Crown Biosciences cell bank except KYSE520, which was provided by HUYABIO. All cell lines were maintained according to source at 37° C. and 5% CO2 unless otherwise noted. Human Lung cancer cell lines NCI-H358, HCC827, Esophageal cancer cell line KYSE520, Stomach cancer cell line NCI-N87 and Mouse Colon cancer cell line MC38 were cultured in RPMI1640+10% FBS. Pancreatic cell line MiaPaca-2 was cultured in MDME+10% FBS+2.5% HS. Pancreatic cancer cell line CAPAN-1 was cultured in IMDM+20% FBS. Brain cancer cell line U87MG was cultured in MEM+0.01 mM NEAA+10% FBS. Lung cancer cell line HCC827-ER1 (Derived from HCC827 at Crown Biosciences) was cultured in RPMI1640+10% FBS+42 μM erlotinib. Lung cancer cell line NCI-H1975 (developed at Synthego Corporation) was cultured in RPMI1640+10% FBS+100 μg/ml Hygromycin (Sun, 2020).
(§2) Cell Viability Assay: For cell cytotoxicity assays, cells were plated in 96-well plates and plating densities were determined on the basis of Crown Biosciences Cell line Database. Cells were plated at 2000 cells/well. Twenty four hours after plating, cells were treated with inhibitors at the indicated compound concentrations. On Day 5, cells were lysed with CellTiter-Glo® Luminescent Cell Viability Assay reagent (Promega) and luminescence was read using the EnVision Multi-plate reader. To calculate IC50 values, a dose-response curve is generated using a nonlinear regression model with a sigmoidal dose response. The formula of surviving rate is shown below. IC50 values were automatically generated by GraphPad Prism 8.0. The results of these assays are depicted in FIG. 1 and Table 1, and further in FIG. 9A (HCC827-ER1) and 9B (NCI-H1975 (L858R/T790M/C797S)).

[2] = tested on: NCI-H1975; assay: Cell viability assay (CellTiter-Glo), NCI-H1975; type: cell-based; conditions: Day 5, CellTiter-Glo
Description: as §1, §2

[3] = tested on: MIAPaCa-2; assay: Cell viability assay (CellTiter-Glo), MIAPaCa-2; type: cell-based; conditions: Day 5, CellTiter-Glo
Description: as §1
(§3) Cell Viability Assay: For cell cytotoxicity assays, cells were plated in 96-well plates and plating densities were determined on the basis of Crown Biosciences Cell line Database. Cells were plated at 2000 cells/well. […] On Day 5, cells were lysed with CellTiter-Glo® Luminescent Cell Viability Assay reagent (Promega) and luminescence was read using the EnVision Multi-plate reader. […]

[4] = tested on: U87MG; assay: Cell viability assay (CellTiter-Glo), U87MG; type: cell-based; conditions: Day 5, CellTiter-Glo
Description: as §1, §2

[5] = tested on: Capan-1; assay: Cell viability assay (CellTiter-Glo), Capan-1; type: cell-based; conditions: Day 5, CellTiter-Glo
Description: as §1, §3

[6] = tested on: KYSE 520; assay: Cell viability assay (CellTiter-Glo), KYSE 520; type: cell-based, human; conditions: Day 5, CellTiter-Glo
Description: as §1, §2

[7] = tested on: NCI-N87; assay: Cell viability assay (CellTiter-Glo), NCI-N87; type: cell-based, human; conditions: Day 5, CellTiter-Glo
Description: as §1, §2

[8] = tested on: HCC827; assay: Cell viability assay (CellTiter-Glo), HCC827; type: cell-based, human; conditions: Day 5, CellTiter-Glo
Description: as §1, §2

[9] = tested on: lung cancer cell line HCC827-ER1; assay: Cell viability assay, HCC827-ER1 (FIG. 9A); type: cell-based, human
Description: as §1, §3

[10] = tested on: NCI-H1975 (L858R/T790M/C797S); assay: Cell viability assay, Osimertinib resistant NCI-H1975 (FIG. 9B); type: cell-based
Description: as §1, §3

[11] = tested on: cancer cell lines; assay: Cell proliferation assays, cell line panel (FIG. 1); type: cell-based; conditions: compared with GH21001 (TNO-155), RMC-4550, Cisplatin
Description: as §1, §3

[12] = tested on: MC38 tumors; assay: Tumor and blood immunotyping (FACS) in MC38 model; type: in vivo, mouse
Description: All cell lines were maintained in culture and cells in exponential growth phase were harvested and quantitated by cell counter before tumor inoculation. MC38 tumor cells (1×10^6) in 0.1 ml of PBS were inoculated into the right front flank of female C57/Bl animals, mean tumor size approximately 112 mm^3 at the start of treatment. NCI-H1975 (EGFR L858R/[…]/C797S) tumor cells (1×10^7) in 0.1 ml of PBS mixed with Matrigel (1:1) inoculated into female NOD/SCID animals, mean tumor approximately 200 mm^3 at the start of treatment. HCC827-ER1 tumor cells (5×10^7) in 0.1 ml of PBS mixed with Matrigel (1:1) inoculated into female Balb/C Nude animals, mean tumor approximately 325 mm^3 at the start of treatment.
The date of randomization and treatment initiation was denoted as day 0. Tumor volumes were measured twice per week in two dimensions using a caliper, and the volume will be expressed in mm^3 using the formula: V=(L×W×W)/2, where V is tumor volume, L is tumor length (the longest tumor dimension) and W is tumor width (the longest tumor dimension perpendicular to L). Dosing volume was 10 mL/kg/day. GH21001 and GH21005 were dissolved in HP-β-CD with 200 ml of 50 mM sodium citrate (pH=4.2). Anti-PD-1 and Rat IgG2a were diluted in PBS. RMC-4550 was diluted in 1% Capitsol in 50 mM sodium citrate (pH=5.0) 0.5% dosing solution of osimertinib was diluted in 2% DMSO/30% PEG300. The results of these experiments are depicted in FIG. 2A-B (MC38 tumors) and FIG. 10A-10B (NCI-H1975 (L858R/T790M/C797S) tumors). The results for HCC827 CDX model are depicted in FIG. 12A-B. Upon termination, tumors were collected. A portion of the tumor was minced and snap frozen immediately for protein isolation or tumor tissue was dissociated for FACs analysis. Another portion of the tumor was fixed in 10% neutral buffered formalin prior to processing into paraffin blocks.
Tumor dissociation: Upon termination animals bearing MC38 tumors, tumors and blood was harvested 12 hours post last dose. Tumors were enzymatically and mechanically dissociated using The Tumor Dissociation Kit (130-096-730) Miltenyi Biotec MACS Technology. Mononuclear blood cells (PBMCs) were isolated from whole blood using Histopaque-1077 (Sigma).
Tumor cell suspension, whole lysed blood or isolated PBMCs were resuspended and blocked in staining buffer with 1 μg/ml Fc-Block (Mouse BD Fc Block™ CAT #553141). All antibodies were diluted in Fc Blocking buffer except FoxP3 which was diluted in Permeabilization Buffer. Antibodies were diluted according to Crown Biosciences optimization. Cell surface markers CD45, CD4, CD335, CD11b, Gr-1 were purchased from Biolegend. CD3 was purchased from BD Biosciences. CD8, FoxP3 and LD BD were purchased from eBiosciences. Data was collected on a cytometer and data was analyzed using Kaluza Analysis Software. The results of these experiments are depicted in FIG. 3 (macrophages), FIG. 4 (monocytes), FIG. 5 (granulocytes), FIG. 6 (CD3+ cells), FIG. 7 (CD4+ cells), and FIG. 8 (CD8+ cells).

[13] = tested on: KC/GRO; assay: Cytokine detection assay (V-Plex Proinflammatory Panel 1 Mouse Kit) in plasma; type: in vivo; conditions: FIG. 11; tumor bearing animals, 2 hours post last dose; versus GH21001 (TNO-155) and RMC-4550; listed as Formula (Ia)
Description: Cytokine detection assay: V-Plex Proinflammatory Panel 1 Mouse Kit (Mesoscale Discovery) was used to determine cytokine levels in plasma isolated from tumor bearing animals 2 hours post last dose. Plasma from tumor bearing animals was analyzed as described by the manufacture's guidelines. Briefly, diluted plasma is introduced to the MSD plate pre-coated with capture antibodies to KC/GRO. After incubation, samples are washed and incubated with secondary detection antibody, (MSD SULFO-TAG™). Electrochemiluminescence detection from the assay is analyzed on the Meso Scale Discovery platform and cytokine levels calculated according to manufacturer's control samples.

IC50 ([1]; Homo sapiens, 120 h)	IC50 ([4]; Homo sapiens, U-87 MG, 120 h)	IC50 ([8]; Homo sapiens, 120 h)	Structure (SMILES)	IC50 [1]	IC50 [2]	IC50 [4]	IC50 [6]	IC50 [7]	IC50 [8]	IC50 ([6]; Homo sapiens, 120 h)	IC50 ([7]; Homo sapiens, 120 h)	also measured
			N.N.[Cl][Pt][Cl] [Cisplatin]	4850 nM	3990 nM	1580 nM	6800 nM	2350 nM	4790 nM			IC50 [3]: 7150 nM; IC50 [5]: 270 nM
460 nM	1530 nM	410 nM	C[C@@H]1OCC2(CCN(c3cnc(Sc4ccnc(N)c4Cl)c(N)n3)CC2)[C@@H]1N [GH21001]							450 nM	230 nM	IC50 ([5]; Homo sapiens, 120 h): 6060 nM
30 nM	230 nM	20 nM	C[C@@H]1OCC2(CCN(c3cnc(Sc4cccc(NC(=O)c5c(O)nc6n(c5=O)CCCC6)c4Cl)cn3)CC2)[C@@H]1N [GH21005, N-(3-((5-((3S,4S)-4-amino-3-methyl-2-oxa-8-azaspiro[4.5]decan-8-yl)pyrazin-2-yl)thio)-2-chlorophenyl)-2-hydroxy-4-oxo-6,7,8,9-tetrahydro-4H-pyrido[1,2-a]pyrimidine-3-carboxamide]							60 nM	10 nM	IC50 ([2]; Homo sapiens, 120 h): 210 nM; viability of lung cancer cell line HCC827-ER1 [9]: reduces viability; viability of Osimertinib resistant cancer cell line NCI-H1975 (L858R/T790M/C797S) [10]: reduces viability; potency in cell proliferation assays versus other agents [11]: greater potency in cell proliferation assays than other agents; macrophage populations in MC38 tumors ([12]; FIG. 3, harvested 12 hours post last dose): reduces macrophage populations; monocyte populations in MC38 tumors ([12]; FIG. 4, harvested 12 hours post last dose): increases monocyte populations; granulocyte populations in MC38 tumors ([12]; FIG. 5, harvested 12 hours post last dose): increases granulocyte populations; circulating CD3+ cell populations ([12]; FIG. 6, MC38 model, blood 12 hours post last dose): increases circulating CD3+ cell populations; circulating CD4+ cell populations ([12]; FIG. 7, MC38 model, blood 12 hours post last dose): increases circulating CD4+ cell populations; circulating CD8+ cell populations ([12]; FIG. 8, MC38 model, blood 12 hours post last dose): increases circulating CD8+ cell populations; KC/GRO level in plasma [13]: significantly reduced KC/GRO as compared to GH21001 (TNO-155) and RMC-4550; also recorded: reduces KC/GRO significantly more than GH21001 (TNO-155) and RMC-4550
			Cc1nc(N2CCC3(CC2)CO[C@@H](C)[C@H]3N)c(CO)nc1-c1cccc(Cl)c1Cl [RMC-4550]	440 nM	1440 nM	3900 nM	490 nM	260 nM	690 nM			
